From ChEMBL document CHEMBL3997765 (Medchemcomm, 2016)

Assays:
[1] = target: Dual specificity mitogen-activated protein kinase kinase 1 (Homo sapiens) (UniProt Q02750); experiment: Inhibition of full length recombinant human His-tagged MEK1 expressed in baculovirus expression system at 10 uM by Z'-LYTE assay relative to control
[2] = target: Mitogen-activated protein kinase kinase kinase kinase 4 (Homo sapiens) (UniProt O95819); experiment: Inhibition of recombinant human GST-tagged HGK catalytic domain (1 to 328 residues) expressed in baculovirus expression system at 10 uM by Z'-LYTE assay relative to control
[3] = target: Fibroblast growth factor receptor 1 (Homo sapiens) (UniProt P11362); experiment: Inhibition of recombinant human His-tagged FGFR1 cytoplasmic domain (308 to 731 residues) expressed in baculovirus expression system at 10 uM by Z'-LYTE assay relative to control
[4] = target: Tyrosine-protein kinase Lck (Homo sapiens) (UniProt P06239); experiment: Inhibition of recombinant human C-terminal His-tagged LCK cytoplasmic domain expressed in baculovirus expression system at 10 uM by Z'-LYTE assay relative to control
[5] = target: Rho-associated protein kinase 1 (Homo sapiens) (UniProt Q13464); experiment: Inhibition of recombinant human GST-tagged ROCK1 catalytic domain (1 to 535 residues) expressed in baculovirus expression system at 10 uM relative to control
Chain of Rho-associated protein kinase 1 (Homo sapiens) (Q13464 2-1354 limits assumed): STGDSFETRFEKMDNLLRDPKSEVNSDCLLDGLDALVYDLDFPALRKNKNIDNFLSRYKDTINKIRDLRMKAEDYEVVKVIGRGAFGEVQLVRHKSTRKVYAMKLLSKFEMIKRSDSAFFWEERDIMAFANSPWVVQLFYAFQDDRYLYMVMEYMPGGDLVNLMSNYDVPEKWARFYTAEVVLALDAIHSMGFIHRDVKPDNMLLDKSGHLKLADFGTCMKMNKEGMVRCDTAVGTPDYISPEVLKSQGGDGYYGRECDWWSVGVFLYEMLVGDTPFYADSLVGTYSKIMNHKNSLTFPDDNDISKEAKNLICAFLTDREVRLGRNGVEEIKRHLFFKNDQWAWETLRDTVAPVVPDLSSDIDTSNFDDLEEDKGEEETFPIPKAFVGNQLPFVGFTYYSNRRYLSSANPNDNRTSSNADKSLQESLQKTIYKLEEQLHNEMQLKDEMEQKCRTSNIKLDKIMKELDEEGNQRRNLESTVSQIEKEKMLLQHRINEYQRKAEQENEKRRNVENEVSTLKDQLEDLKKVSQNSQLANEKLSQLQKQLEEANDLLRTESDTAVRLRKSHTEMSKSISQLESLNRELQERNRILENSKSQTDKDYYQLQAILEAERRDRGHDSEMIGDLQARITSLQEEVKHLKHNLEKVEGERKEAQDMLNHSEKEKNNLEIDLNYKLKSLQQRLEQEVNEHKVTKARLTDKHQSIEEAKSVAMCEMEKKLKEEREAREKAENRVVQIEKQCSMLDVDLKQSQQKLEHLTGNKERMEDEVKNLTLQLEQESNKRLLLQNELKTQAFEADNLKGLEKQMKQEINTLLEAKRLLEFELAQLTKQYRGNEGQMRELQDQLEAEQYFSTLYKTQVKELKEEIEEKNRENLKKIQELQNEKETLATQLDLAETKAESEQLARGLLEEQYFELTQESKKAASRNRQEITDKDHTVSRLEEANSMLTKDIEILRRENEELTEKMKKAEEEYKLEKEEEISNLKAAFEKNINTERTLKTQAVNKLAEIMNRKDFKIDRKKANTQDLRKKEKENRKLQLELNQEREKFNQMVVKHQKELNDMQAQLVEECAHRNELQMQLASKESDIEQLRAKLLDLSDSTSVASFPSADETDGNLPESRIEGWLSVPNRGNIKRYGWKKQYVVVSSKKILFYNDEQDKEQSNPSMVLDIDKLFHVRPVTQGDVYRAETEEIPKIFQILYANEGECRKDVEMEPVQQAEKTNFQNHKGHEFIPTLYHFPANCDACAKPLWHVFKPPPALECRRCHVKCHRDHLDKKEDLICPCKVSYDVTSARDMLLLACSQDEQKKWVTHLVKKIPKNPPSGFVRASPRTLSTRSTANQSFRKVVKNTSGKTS

[6] = target: Casein kinase I isoform gamma-2 (Homo sapiens) (UniProt P78368); experiment: Inhibition of full length recombinant human His-tagged CK1gamma2 expressed in baculovirus expression system at 10 uM by Z'-LYTE assay relative to control
[7] = target: Tyrosine-protein kinase JAK3 (Homo sapiens) (UniProt P52333); experiment: Inhibition of recombinant human GST-tagged JAK3 catalytic domain (781 to 1124 residues) expressed in baculovirus expression system at 10 uM by Z'-LYTE assay relative to control
[8] = target: Proto-oncogene tyrosine-protein kinase receptor Ret (Homo sapiens) (UniProt P07949); experiment: Inhibition of recombinant human GST-tagged RET cytoplasmic domain (658 to 1114 residues) expressed in baculovirus expression system at 10 uM relative to control
[9] = target: Tyrosine-protein kinase ABL1 (Homo sapiens) (UniProt P00519); experiment: Inhibition of recombinant human His-tagged ABL1 cytoplasmic domain expressed in baculovirus expression system at 10 uM by Z'-LYTE assay relative to control
Chain of Tyrosine-protein kinase ABL1 (Homo sapiens) (P00519 whole entry, the tested form may be a part): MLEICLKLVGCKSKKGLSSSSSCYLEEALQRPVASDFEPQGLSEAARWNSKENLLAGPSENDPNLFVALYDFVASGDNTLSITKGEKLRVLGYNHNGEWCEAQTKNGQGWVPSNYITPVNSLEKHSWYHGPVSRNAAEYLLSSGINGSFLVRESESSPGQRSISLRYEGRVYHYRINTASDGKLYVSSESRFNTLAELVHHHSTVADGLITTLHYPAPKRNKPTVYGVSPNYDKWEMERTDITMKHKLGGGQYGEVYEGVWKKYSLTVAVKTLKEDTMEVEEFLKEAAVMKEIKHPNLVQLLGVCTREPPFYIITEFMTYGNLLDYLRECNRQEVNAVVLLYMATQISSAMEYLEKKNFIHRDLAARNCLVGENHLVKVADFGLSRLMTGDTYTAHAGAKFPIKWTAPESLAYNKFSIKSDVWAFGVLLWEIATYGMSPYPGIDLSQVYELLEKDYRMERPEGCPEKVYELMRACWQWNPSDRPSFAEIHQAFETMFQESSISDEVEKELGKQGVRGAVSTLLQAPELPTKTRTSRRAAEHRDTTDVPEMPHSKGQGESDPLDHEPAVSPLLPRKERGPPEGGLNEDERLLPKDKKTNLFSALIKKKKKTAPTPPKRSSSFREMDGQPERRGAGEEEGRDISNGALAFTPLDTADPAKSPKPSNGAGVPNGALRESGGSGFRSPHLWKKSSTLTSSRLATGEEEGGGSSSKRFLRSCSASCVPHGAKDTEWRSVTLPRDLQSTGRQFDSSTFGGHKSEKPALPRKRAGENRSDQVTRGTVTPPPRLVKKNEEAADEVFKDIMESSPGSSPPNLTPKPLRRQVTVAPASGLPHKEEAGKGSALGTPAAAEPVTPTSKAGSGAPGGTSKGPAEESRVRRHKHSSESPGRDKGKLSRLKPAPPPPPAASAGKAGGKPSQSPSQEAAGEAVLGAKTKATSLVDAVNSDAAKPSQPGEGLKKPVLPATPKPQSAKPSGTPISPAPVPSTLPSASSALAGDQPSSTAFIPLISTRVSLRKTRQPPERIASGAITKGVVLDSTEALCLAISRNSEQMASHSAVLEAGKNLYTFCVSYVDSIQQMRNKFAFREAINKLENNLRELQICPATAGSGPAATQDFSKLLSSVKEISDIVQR

[10] = target: Angiopoietin-1 receptor (Homo sapiens) (UniProt Q02763); experiment: Inhibition of recombinant human GST-tagged TIE2 cytoplasmic domain (817 to 1101 residues) expressed in baculovirus expression system at 10 uM by Z'-LYTE assay relative to control
Chain of Angiopoietin-1 receptor (Homo sapiens) (Q02763 whole entry, the tested form may be a part): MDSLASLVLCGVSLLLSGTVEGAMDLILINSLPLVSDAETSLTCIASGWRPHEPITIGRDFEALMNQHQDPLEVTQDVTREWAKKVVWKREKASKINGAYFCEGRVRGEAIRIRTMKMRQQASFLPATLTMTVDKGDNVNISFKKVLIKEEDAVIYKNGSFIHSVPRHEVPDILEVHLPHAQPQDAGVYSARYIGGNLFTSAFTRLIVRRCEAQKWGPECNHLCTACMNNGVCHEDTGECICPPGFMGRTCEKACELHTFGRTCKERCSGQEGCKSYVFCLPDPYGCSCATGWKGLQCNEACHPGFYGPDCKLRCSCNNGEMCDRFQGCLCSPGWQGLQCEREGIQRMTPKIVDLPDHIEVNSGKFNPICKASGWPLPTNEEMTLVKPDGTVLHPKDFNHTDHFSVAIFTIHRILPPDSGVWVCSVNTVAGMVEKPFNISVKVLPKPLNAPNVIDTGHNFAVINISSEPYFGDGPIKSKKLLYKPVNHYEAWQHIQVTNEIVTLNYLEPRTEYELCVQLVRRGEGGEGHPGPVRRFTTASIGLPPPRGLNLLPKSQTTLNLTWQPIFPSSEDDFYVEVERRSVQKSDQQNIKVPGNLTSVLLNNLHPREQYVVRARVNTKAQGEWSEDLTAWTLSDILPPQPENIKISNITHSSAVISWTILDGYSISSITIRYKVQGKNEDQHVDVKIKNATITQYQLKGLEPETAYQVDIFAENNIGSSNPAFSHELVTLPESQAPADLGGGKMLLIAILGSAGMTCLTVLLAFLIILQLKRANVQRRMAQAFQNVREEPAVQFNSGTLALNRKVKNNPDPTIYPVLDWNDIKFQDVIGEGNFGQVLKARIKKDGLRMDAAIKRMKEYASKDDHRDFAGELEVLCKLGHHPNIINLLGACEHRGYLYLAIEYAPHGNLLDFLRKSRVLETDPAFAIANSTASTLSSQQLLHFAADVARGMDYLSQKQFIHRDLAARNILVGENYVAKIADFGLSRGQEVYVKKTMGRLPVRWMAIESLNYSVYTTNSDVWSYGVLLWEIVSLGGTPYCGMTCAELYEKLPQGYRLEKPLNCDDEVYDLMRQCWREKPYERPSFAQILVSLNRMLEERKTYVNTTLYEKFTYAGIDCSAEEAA

[11] = target: Mitogen-activated protein kinase 14 (Homo sapiens, UniProt Q16539); experiment: Inhibition of full length recombinant human GST-tagged p38alpha expressed in Escherichia coli at 10 uM by Z'-LYTE assay relative to control
[12] = target: Tyrosine-protein kinase BTK (Homo sapiens) (UniProt Q06187); experiment: Inhibition of recombinant human His-tagged BTK cytoplasmic domain expressed in baculovirus expression system at 10 uM by Z'-LYTE assay relative to control
[13] = target: Tyrosine-protein kinase SYK (Homo sapiens) (UniProt P43405); experiment: Inhibition of recombinant human N-terminal GST-tagged SYK cytoplasmic domain expressed in baculovirus expression system at 10 uM by Z'-LYTE assay relative to control
[14] = target: Hepatocyte growth factor receptor (Homo sapiens) (UniProt P08581); experiment: Inhibition of recombinant human His-tagged MET cytoplasmic domain (956 to 1390 residues) expressed in baculovirus expression system at 10 uM by Z'-LYTE assay relative to control
[15] = target: Receptor tyrosine-protein kinase erbB-2 (Homo sapiens) (UniProt P04626); experiment: Inhibition of recombinant human His-tagged HER2 cytoplasmic domain (676 to 1255 residues) expressed in baculovirus expression system at 10 uM by Z'-LYTE assay relative to control
[16] = target: Insulin-like growth factor 1 receptor (Homo sapiens) (UniProt P08069); experiment: Inhibition of recombinant human C-terminal His-tagged IGF1R cytoplasmic domain (960 to 1397 residues) expressed in baculovirus expression system at 10 uM by Z'-LYTE assay relative to control
[17] = target: RAC-alpha serine/threonine-protein kinase (Homo sapiens) (UniProt P31749); experiment: Inhibition of full length recombinant human His-tagged PKBalpha expressed in baculovirus expression system at 10 uM by Z'-LYTE assay relative to control
[18] = target: Insulin receptor (Homo sapiens) (UniProt P06213); experiment: Inhibition of recombinant human GST-tagged INSR cytoplasmic domain (1011 to 1382 residues) expressed in baculovirus expression system at 10 uM by Z'-LYTE assay relative to control
[19] = target: Ribosomal protein S6 kinase beta-1 (Homo sapiens) (UniProt P23443); experiment: Inhibition of recombinant human GST-tagged p70S6K catalytic domain (1 to 421 residues) expressed in baculovirus expression system at 10 uM relative to control
[20] = target: High affinity nerve growth factor receptor (Homo sapiens) (UniProt P04629); experiment: Inhibition of recombinant human His-tagged TRKA cytoplasmic domain (441 to 796 residues) expressed in baculovirus expression system at 10 uM by Z'-LYTE assay relative to control
Chain of High affinity nerve growth factor receptor (Homo sapiens) (P04629 33-796 limits assumed): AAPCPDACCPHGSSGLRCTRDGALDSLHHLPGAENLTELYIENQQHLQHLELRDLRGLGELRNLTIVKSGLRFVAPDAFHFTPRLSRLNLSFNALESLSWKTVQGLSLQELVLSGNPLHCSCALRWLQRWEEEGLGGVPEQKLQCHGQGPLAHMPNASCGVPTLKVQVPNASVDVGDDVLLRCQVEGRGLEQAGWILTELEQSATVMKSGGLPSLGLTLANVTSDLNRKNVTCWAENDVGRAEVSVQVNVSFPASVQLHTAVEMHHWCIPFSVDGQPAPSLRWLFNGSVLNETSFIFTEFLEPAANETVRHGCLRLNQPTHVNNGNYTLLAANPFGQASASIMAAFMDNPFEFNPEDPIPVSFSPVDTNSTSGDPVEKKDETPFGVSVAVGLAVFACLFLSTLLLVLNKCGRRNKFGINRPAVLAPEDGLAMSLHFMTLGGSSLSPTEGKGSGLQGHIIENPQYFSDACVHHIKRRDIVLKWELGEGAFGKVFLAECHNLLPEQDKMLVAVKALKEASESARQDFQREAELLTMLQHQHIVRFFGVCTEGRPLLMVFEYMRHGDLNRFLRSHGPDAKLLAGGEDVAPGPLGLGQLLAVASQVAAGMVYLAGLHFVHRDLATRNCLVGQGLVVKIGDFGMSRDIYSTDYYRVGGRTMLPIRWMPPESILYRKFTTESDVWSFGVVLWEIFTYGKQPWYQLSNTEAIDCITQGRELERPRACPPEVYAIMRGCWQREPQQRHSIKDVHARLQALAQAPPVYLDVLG

[21] = target: Vascular endothelial growth factor receptor 2 (Homo sapiens) (UniProt P35968); experiment: Inhibition of recombinant human His-tagged KDR cytoplasmic domain (789 to 1356 residues) expressed in baculovirus expression system at 10 uM by Z'-LYTE assay relative to control
[22] = target: Ephrin type-A receptor 2 (Homo sapiens) (UniProt P29317); experiment: Inhibition of recombinant human GST-tagged EPHA2 cytoplasmic domain (560 to 976 residues) expressed in baculovirus expression system at 10 uM by Z'-LYTE assay relative to control
[23] = target: Epidermal growth factor receptor (Homo sapiens) (UniProt P00533); experiment: Inhibition of recombinant human GST-tagged EGFR cytoplasmic domain (668 to 1210 residues) expressed in baculovirus expression system at 10 uM by Z'-LYTE assay relative to control
[24] = target: MAP kinase-activated protein kinase 2 (Homo sapiens) (UniProt P49137); experiment: Inhibition of full length recombinant human His-tagged MAPKAPK2 expressed in Escherichia coli at 10 uM by Z'-LYTE assay relative to control
[25] = target: Cyclin-dependent kinase 1/cyclin B1 (Homo sapiens) (UniProt P06493+P14635); experiment: Inhibition of full length recombinant human His-tagged CDK1/Cyclin B expressed in baculovirus expression system at 10 uM by Z'-LYTE assay relative to control
Chain of Cyclin-dependent kinase 1/cyclin B1 (Homo sapiens) (P06493 whole entry, looked up): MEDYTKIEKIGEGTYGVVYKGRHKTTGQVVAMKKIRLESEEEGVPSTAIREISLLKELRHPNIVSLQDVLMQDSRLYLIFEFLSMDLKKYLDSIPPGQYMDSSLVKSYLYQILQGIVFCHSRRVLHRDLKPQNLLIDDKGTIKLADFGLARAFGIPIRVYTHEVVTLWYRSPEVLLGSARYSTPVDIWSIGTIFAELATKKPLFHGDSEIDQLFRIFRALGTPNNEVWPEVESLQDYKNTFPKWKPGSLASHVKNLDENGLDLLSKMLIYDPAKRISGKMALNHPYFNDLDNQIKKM
Chain of Cyclin-dependent kinase 1/cyclin B1 (Homo sapiens) (P14635 whole entry, looked up): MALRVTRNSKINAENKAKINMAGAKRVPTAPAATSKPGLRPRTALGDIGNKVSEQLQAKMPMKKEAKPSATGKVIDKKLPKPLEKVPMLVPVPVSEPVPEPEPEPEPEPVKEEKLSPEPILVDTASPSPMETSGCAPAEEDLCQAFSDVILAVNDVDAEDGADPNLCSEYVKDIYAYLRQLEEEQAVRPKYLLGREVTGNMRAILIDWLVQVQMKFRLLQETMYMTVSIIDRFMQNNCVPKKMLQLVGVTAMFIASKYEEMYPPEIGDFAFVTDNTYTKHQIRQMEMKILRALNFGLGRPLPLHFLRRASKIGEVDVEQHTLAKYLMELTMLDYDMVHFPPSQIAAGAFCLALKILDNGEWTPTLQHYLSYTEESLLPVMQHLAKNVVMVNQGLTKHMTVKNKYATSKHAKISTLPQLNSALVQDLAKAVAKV

[26] = target: Casein kinase II subunit alpha (Homo sapiens) (UniProt P68400); experiment: Inhibition of full length recombinant human His-tagged CK2alpha1 expressed in baculovirus expression system at 10 uM by Z'-LYTE assay relative to control
[27] = target: Receptor-type tyrosine-protein kinase FLT3 (Homo sapiens) (UniProt P36888); experiment: Inhibition of recombinant human His-tagged FLT3 cytoplasmic domain (564 to 958 residues) expressed in baculovirus expression system at 10 uM by Z'-LYTE assay relative to control

inhibition [1]: 2%
inhibition [2]: 15%
inhibition [3]: -4%
inhibition [4]: 10%
inhibition [5]: 2%
inhibition [6]: 6%
inhibition [7]: -1%
inhibition [8]: 7%
inhibition [9]: 12%
inhibition [10]: 11%
inhibition [11]: 74%
inhibition [12]: 3%
inhibition [13]: -3%
inhibition [14]: 14%
inhibition [15]: -4%
inhibition [16]: 2%
inhibition [17]: 5%
inhibition [18]: 2%
inhibition [19]: 1%
inhibition [20]: 2%
inhibition [21]: 12%
inhibition [22]: 9%
inhibition [23]: 1%
inhibition [24]: 8%
inhibition [25]: 8%
inhibition [26]: 3%
inhibition [27]: 6%
SMILES: CC1=Nc2c(Sc3ccccc3)ncnc2Sc2ccccc21
